The subject of assay [1] is Human immunodeficiency virus 1. Kind of assay: Binding affinity to HIV1 His-tagged N-terminal heptad repeat of envelope glycoprotein gp41 assessed as recovery of N36-drug complex after 2 hrs by LC-MS analysis. Set-up: concentration or dose not given beside the values.
For assay [2], the system named is Human immunodeficiency virus 1. The experiment in a line: Antiviral activity against HIV1 NL4-3 harboring gp41 D36G mutant infected in human HeLa cells expressing CD4-LTR-beta-gal assessed as inhibition of viral replication after 48 hrs by MAGI assay. In kind it is functional, organism-based.
Assay [3] has as its system Human immunodeficiency virus 1. Kind of assay: Thermal stability of HIV1 envelope glycoprotein gp41 His-tagged N-terminal heptad repeat N36-drug complex assessed as thermal unfolding transition state by measuring molar ellipticity at 4 to 90 degC by circular dichroic spectra analysis.

Residues, ends and D or L forms follow the SMILES beside them.

Drawing on ChEMBL document CHEMBL3390848, “Affinity selection and sequence-activity relationships of HIV-1 membrane fusion inhibitors directed at the drug-resistant variants” (Medchemcomm, 2010), this text covers Activity, EC50 and Tm for seven compounds.

A word on the EC50: it is the concentration at which the effect is half-maximal. In general, Tm refers to the temperature at the midpoint of the melting transition. As to `CC[C@H](C)[C@H](NC(=O)[C@H](CC(C)C)NC(=O)[C@H](CCC(=O)O)NC(=O)[C@H](CCC(=O)O)NC(=O)[C@@H](NC(=O)[C@H](CCCCN)NC(=O)[C@H](CCCCN)NC(=O)[C@@H](NC(=O)[C@H](Cc1ccc(O)cc1)NC(=O)[C@H](CCC(=O)O)NC(=O)[C@H](CCC(=O)O)NC(=O)[C@@H](NC(=O)[C@H](CCCCN)NC(=O)[C@H](CCCCN)NC(=O)[C@H](CC(=O)O)NC(=O)[C@H](Cc1c[nH]c2ccccc12)NC(=O)[C@H](CCC(=O)O)NC(=O)[C@H](CCC(=O)O)NC(=O)[C@H](Cc1c[nH]c2ccccc12)NC(C)=O)[C@@H](C)CC)[C@@H](C)O)[C@@H](C)CC)C(=O)N[C@@H](CCCCN)C(=O)N[C@@H](CCCCN)C(=O)N[C@@H](CO)C(=O)N[C@@H](CCC(=O)O)C(=O)N[C@@H](CCC(=O)O)C(=O)N[C@@H](Cc1cnc[nH]1)C(=O)N[C@@H](CCC(N)=O)C(=O)N[C@@H](CCCCN)C(=O)N[C@@H](CCCCN)C(=O)N[C@@H](CC(N)=O)C(=O)N[C@@H](CCC(=O)O)C(=O)N[C@@H](CCC(=O)O)C(=O)N[C@@H](CCC(=O)O)C(=O)N[C@@H](CC(C)C)C(=O)N[C@@H](CCCCN)C(=O)N[C@@H](CCCCN)C(N)=O` (Ac-WEEWDKKIEEYTKKIEELIKKSEEHQKKNEEELKK-NH2), the Activity in assay [1] turned out to be 4.3%. Further, the EC50 in assay [2] stood at 2 nM. In assay [3], the Tm was determined as 72.6 °C.

For the compound `CC[C@H](C)[C@H](NC(=O)[C@H](CCC(=O)O)NC(=O)[C@H](CCC(=O)O)NC(=O)[C@H](CO)NC(=O)[C@H](CCCCN)NC(=O)[C@H](CCCCN)NC(=O)[C@@H](NC(=O)[C@H](CC(C)C)NC(=O)[C@H](CCC(=O)O)NC(=O)[C@H](CCC(=O)O)NC(=O)[C@@H](NC(=O)[C@H](CCCCN)NC(=O)[C@H](CCCCN)NC(=O)[C@@H](NC(=O)[C@H](Cc1ccc(O)cc1)NC(=O)[C@H](CCC(=O)O)NC(=O)[C@H](CCC(=O)O)NC(=O)[C@@H](NC(=O)[C@H](CCCCN)NC(=O)[C@H](CCCCN)NC(=O)[C@H](CC(=O)O)NC(=O)[C@H](Cc1c[nH]c2ccccc12)NC(=O)[C@H](CCC(=O)O)NC(=O)[C@H](CCC(=O)O)NC(=O)[C@H](Cc1c[nH]c2ccccc12)NC(C)=O)[C@@H](C)CC)[C@@H](C)O)[C@@H](C)CC)[C@@H](C)CC)C(=O)N[C@@H](CCC(N)=O)C(=O)N[C@@H](CCCCN)C(=O)N[C@@H](CCCCN)C(=O)N[C@@H](CC(N)=O)C(=O)N[C@@H](CCC(=O)O)C(=O)N[C@@H](CCC(=O)O)C(=O)N[C@@H](CCC(=O)O)C(=O)N[C@@H](CC(C)C)C(=O)N[C@@H](CCCCN)C(=O)N[C@@H](CCCCN)C(N)=O` (Ac-WEEWDKKIEEYTKKIEELIKKSEEIQKKNEEELKK-NH2), the Activity in assay [1] amounted to 8.2%. The EC50 in assay [2] worked out at 2.9 nM. Moreover, the Tm in assay [3] was 79.7 °C.

For the compound `CC[C@H](C)[C@H](NC(=O)[C@H](CC(C)C)NC(=O)[C@H](CCC(=O)O)NC(=O)[C@H](CCC(=O)O)NC(=O)[C@@H](NC(=O)[C@H](CCCCN)NC(=O)[C@H](CCCCN)NC(=O)[C@@H](NC(=O)[C@H](Cc1ccc(O)cc1)NC(=O)[C@H](CCC(=O)O)NC(=O)[C@H](CCC(=O)O)NC(=O)[C@@H](NC(=O)[C@H](CCCCN)NC(=O)[C@H](CCCCN)NC(=O)[C@H](CC(=O)O)NC(=O)[C@H](Cc1c[nH]c2ccccc12)NC(=O)[C@H](CCC(=O)O)NC(=O)[C@H](CCC(=O)O)NC(=O)[C@H](Cc1c[nH]c2ccccc12)NC(C)=O)[C@@H](C)CC)[C@@H](C)O)[C@@H](C)CC)C(=O)N[C@@H](CCCCN)C(=O)N[C@@H](CCCCN)C(=O)N[C@@H](CO)C(=O)N[C@@H](CCC(=O)O)C(=O)N[C@@H](CCC(=O)O)C(=O)N[C@@H](CCCCN)C(=O)N[C@@H](CCC(N)=O)C(=O)N[C@@H](CCCCN)C(=O)N[C@@H](CCCCN)C(=O)N[C@@H](CC(N)=O)C(=O)N[C@@H](CCC(=O)O)C(=O)N[C@@H](CCC(=O)O)C(=O)N[C@@H](CCC(=O)O)C(=O)N[C@@H](CC(C)C)C(=O)N[C@@H](CCCCN)C(=O)N[C@@H](CCCCN)C(N)=O` (Ac-WEEWDKKIEEYTKKIEELIKKSEEKQKKNEEELKK-NH2), the Activity in assay [1] turned out to be 4.8%. In assay [2], the EC50 turned out to be 2.7 nM. Also, in assay [3], the Tm is 69.2 °C.

Take `CC[C@H](C)[C@H](NC(=O)[C@H](CC(C)C)NC(=O)[C@H](CCC(=O)O)NC(=O)[C@H](CCC(=O)O)NC(=O)[C@@H](NC(=O)[C@H](CCCCN)NC(=O)[C@H](CCCCN)NC(=O)[C@@H](NC(=O)[C@H](Cc1ccc(O)cc1)NC(=O)[C@H](CCC(=O)O)NC(=O)[C@H](CCC(=O)O)NC(=O)[C@@H](NC(=O)[C@H](CCCCN)NC(=O)[C@H](CCCCN)NC(=O)[C@H](CC(=O)O)NC(=O)[C@H](Cc1c[nH]c2ccccc12)NC(=O)[C@H](CCC(=O)O)NC(=O)[C@H](CCC(=O)O)NC(=O)[C@H](Cc1c[nH]c2ccccc12)NC(C)=O)[C@@H](C)CC)[C@@H](C)O)[C@@H](C)CC)C(=O)N[C@@H](CCCCN)C(=O)N[C@@H](CCCCN)C(=O)N[C@@H](CO)C(=O)N[C@@H](CCC(=O)O)C(=O)N[C@@H](CCC(=O)O)C(=O)N[C@@H](CC(C)C)C(=O)N[C@@H](CCC(N)=O)C(=O)N[C@@H](CCCCN)C(=O)N[C@@H](CCCCN)C(=O)N[C@@H](CC(N)=O)C(=O)N[C@@H](CCC(=O)O)C(=O)N[C@@H](CCC(=O)O)C(=O)N[C@@H](CCC(=O)O)C(=O)N[C@@H](CC(C)C)C(=O)N[C@@H](CCCCN)C(=O)N[C@@H](CCCCN)C(N)=O` (Ac-WEEWDKKIEEYTKKIEELIKKSEELQKKNEEELKK-NH2): in assay [1], the Activity came out at 8.2%. Moreover, in assay [2], the EC50 came to 2.7 nM. Moreover, in assay [3], the Tm worked out at 83.8 °C.

Turning to `CC[C@H](C)[C@H](NC(=O)[C@H](CC(C)C)NC(=O)[C@H](CCC(=O)O)NC(=O)[C@H](CCC(=O)O)NC(=O)[C@@H](NC(=O)[C@H](CCCCN)NC(=O)[C@H](CCCCN)NC(=O)[C@@H](NC(=O)[C@H](Cc1ccc(O)cc1)NC(=O)[C@H](CCC(=O)O)NC(=O)[C@H](CCC(=O)O)NC(=O)[C@@H](NC(=O)[C@H](CCCCN)NC(=O)[C@H](CCCCN)NC(=O)[C@H](CC(=O)O)NC(=O)[C@H](Cc1c[nH]c2ccccc12)NC(=O)[C@H](CCC(=O)O)NC(=O)[C@H](CCC(=O)O)NC(=O)[C@H](Cc1c[nH]c2ccccc12)NC(C)=O)[C@@H](C)CC)[C@@H](C)O)[C@@H](C)CC)C(=O)N[C@@H](CCCCN)C(=O)N[C@@H](CCCCN)C(=O)N[C@@H](CO)C(=O)N[C@@H](CCC(=O)O)C(=O)N[C@@H](CCC(=O)O)C(=O)N[C@@H](CCSC)C(=O)N[C@@H](CCC(N)=O)C(=O)N[C@@H](CCCCN)C(=O)N[C@@H](CCCCN)C(=O)N[C@@H](CC(N)=O)C(=O)N[C@@H](CCC(=O)O)C(=O)N[C@@H](CCC(=O)O)C(=O)N[C@@H](CCC(=O)O)C(=O)N[C@@H](CC(C)C)C(=O)N[C@@H](CCCCN)C(=O)N[C@@H](CCCCN)C(N)=O` (Ac-WEEWDKKIEEYTKKIEELIKKSEEMQKKNEEELKK-NH2), the Activity in assay [1] was 6%. The half-maximal effective concentration (EC50) in assay [2] turned out to be 2 nM. In addition, the melting temperature (Tm) in assay [3] was 80.2 °C.

For `CC[C@H](C)[C@H](NC(=O)[C@H](CC(C)C)NC(=O)[C@H](CCC(=O)O)NC(=O)[C@H](CCC(=O)O)NC(=O)[C@@H](NC(=O)[C@H](CCCCN)NC(=O)[C@H](CCCCN)NC(=O)[C@@H](NC(=O)[C@H](Cc1ccc(O)cc1)NC(=O)[C@H](CCC(=O)O)NC(=O)[C@H](CCC(=O)O)NC(=O)[C@@H](NC(=O)[C@H](CCCCN)NC(=O)[C@H](CCCCN)NC(=O)[C@H](CC(=O)O)NC(=O)[C@H](Cc1c[nH]c2ccccc12)NC(=O)[C@H](CCC(=O)O)NC(=O)[C@H](CCC(=O)O)NC(=O)[C@H](Cc1c[nH]c2ccccc12)NC(C)=O)[C@@H](C)CC)[C@@H](C)O)[C@@H](C)CC)C(=O)N[C@@H](CCCCN)C(=O)N[C@@H](CCCCN)C(=O)N[C@@H](CO)C(=O)N[C@@H](CCC(=O)O)C(=O)N[C@@H](CCC(=O)O)C(=O)N[C@@H](CC(N)=O)C(=O)N[C@@H](CCC(N)=O)C(=O)N[C@@H](CCCCN)C(=O)N[C@@H](CCCCN)C(=O)N[C@@H](CC(N)=O)C(=O)N[C@@H](CCC(=O)O)C(=O)N[C@@H](CCC(=O)O)C(=O)N[C@@H](CCC(=O)O)C(=O)N[C@@H](CC(C)C)C(=O)N[C@@H](CCCCN)C(=O)N[C@@H](CCCCN)C(N)=O` (Ac-WEEWDKKIEEYTKKIEELIKKSEENQKKNEEELKK-NH2), the Activity in assay [1] was 4%. Further, the EC50 in assay [2] is 2.5 nM. Also, in assay [3], the Tm turned out to be 73.4 °C.

Consider `CC[C@H](C)[C@H](NC(=O)[C@H](CC(C)C)NC(=O)[C@H](CCC(=O)O)NC(=O)[C@H](CCC(=O)O)NC(=O)[C@@H](NC(=O)[C@H](CCCCN)NC(=O)[C@H](CCCCN)NC(=O)[C@@H](NC(=O)[C@H](Cc1ccc(O)cc1)NC(=O)[C@H](CCC(=O)O)NC(=O)[C@H](CCC(=O)O)NC(=O)[C@@H](NC(=O)[C@H](CCCCN)NC(=O)[C@H](CCCCN)NC(=O)[C@H](CC(=O)O)NC(=O)[C@H](Cc1c[nH]c2ccccc12)NC(=O)[C@H](CCC(=O)O)NC(=O)[C@H](CCC(=O)O)NC(=O)[C@H](Cc1c[nH]c2ccccc12)NC(C)=O)[C@@H](C)CC)[C@@H](C)O)[C@@H](C)CC)C(=O)N[C@@H](CCCCN)C(=O)N[C@@H](CCCCN)C(=O)N[C@@H](CO)C(=O)N[C@@H](CCC(=O)O)C(=O)N[C@@H](CCC(=O)O)C(=O)N1CCC[C@H]1C(=O)N[C@@H](CCC(N)=O)C(=O)N[C@@H](CCCCN)C(=O)N[C@@H](CCCCN)C(=O)N[C@@H](CC(N)=O)C(=O)N[C@@H](CCC(=O)O)C(=O)N[C@@H](CCC(=O)O)C(=O)N[C@@H](CCC(=O)O)C(=O)N[C@@H](CC(C)C)C(=O)N[C@@H](CCCCN)C(=O)N[C@@H](CCCCN)C(N)=O` (Ac-WEEWDKKIEEYTKKIEELIKKSEEPQKKNEEELKK-NH2), for which the Activity in assay [1] was determined as 0%. For the same compound, the EC50 in assay [2] turned out to be 58 nM. The Tm in assay [3] was determined as 60.2 °C.
